Results published in ChEMBL document CHEMBL1201861, “Genomics of Drug Sensitity in Cancer screening data, Wellcome Trust Sanger Institute”.
pIC50: −log10 of the molar value.

Key:
Assay in all cases: cells
Conditions in all cases: Homo sapiens
[1] = tested on: QIMR-WIL; assay type: functional, cell-based;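 further: growth inhibition of QIMR-WIL cells, read out with a cell viability assay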
Description: SANGER: Inhibition of human QIMR-WIL cell growth in a cell viability assay.

[2] = tested on: COLO-684; assay type: functional, cell-based
Description: SANGER: Inhibition of human COLO-684 cell growth in a cell viability assay.

[3] = tested on: ES6; assay type: functional, cell-based;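 further: growth inhibition of human ES6 cells, read out with a cell viability assay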
Description: SANGER: Inhibition of human ES6 cell growth in a cell viability assay.

[4] = tested on: 697; assay type: functional, cell-based
Description: SANGER: Inhibition of human 697 cell growth in a cell viability assay.

[5] = tested on: LS-1034; assay type: functional, cell-based
Description: SANGER: Inhibition of human LS-1034 cell growth in a cell viability assay.

[6] = tested on: LB831-BLC; assay type: functional, cell-based;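 further: growth inhibition of LB831-BLC cells, read out with a cell viability assay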
Description: SANGER: Inhibition of human LB831-BLC cell growth in a cell viability assay.

[7] = tested on: ML-2; assay type: functional, cell-based;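 further: growth inhibition of ML-2 cells, measured with a cell viability readout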
Description: SANGER: Inhibition of human ML-2 cell growth in a cell viability assay.

[8] = tested on: LB2518-MEL; assay type: functional, cell-based;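 further: growth inhibition of human LB2518-MEL cells, measured with a cell viability assay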
Description: SANGER: Inhibition of human LB2518-MEL cell growth in a cell viability assay.

[9] = tested on: NCI-H1770; assay type: functional, cell-based;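 further: growth inhibition of NCI-H1770 cells determined with a viability readout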
Description: SANGER: Inhibition of human NCI-H1770 cell growth in a cell viability assay.

[10] = tested on: NCI-H1299; assay type: functional, cell-based;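 further: growth inhibition of human NCI-H1299 cells, read out by a cell viability assay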
Description: SANGER: Inhibition of human NCI-H1299 cell growth in a cell viability assay.

[11] = tested on: AM-38; assay type: functional, cell-based;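 further: growth inhibition of AM-38 cells of human origin, read out by a cell viability assay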
Description: SANGER: Inhibition of human AM-38 cell growth in a cell viability assay.

[12] = tested on: SK-LMS-1; assay type: functional, cell-based;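 further: growth inhibition of human SK-LMS-1 cells, read out with a cell viability assay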
Description: SANGER: Inhibition of human SK-LMS-1 cell growth in a cell viability assay.

[13] = tested on: KM12; assay type: functional, cell-based;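 further: KM12 cell growth inhibition, read out with a cell viability assay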
Description: SANGER: Inhibition of human KM12 cell growth in a cell viability assay.

[14] = tested on: MN-60; assay type: functional, cell-based;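 further: growth inhibition of the MN-60 cell line, determined with a cell viability assay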
Description: SANGER: Inhibition of human MN-60 cell growth in a cell viability assay.

[15] = tested on: Calu-6; assay type: functional, cell-based;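 further: growth of human Calu-6 cells, read out by a cell viability assay, IC50 marking inhibition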
Description: SANGER: Inhibition of human Calu-6 cell growth in a cell viability assay.

[16] = tested on: KYSE-450; assay type: functional, cell-based;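 further: cell growth inhibition measured by a viability assay in human KYSE-450 cells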
Description: SANGER: Inhibition of human KYSE-450 cell growth in a cell viability assay.

[17] = tested on: MV4-11; assay type: functional, cell-based, MV-4-11;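 further: cell viability readout measuring growth inhibition of human MV-4-11 cells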
Description: SANGER: Inhibition of human MV-4-11 cell growth in a cell viability assay.

[18] = tested on: NB13; assay type: functional, cell-based;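 further: cell viability readout measuring growth inhibition of human NB13 cells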
Description: SANGER: Inhibition of human NB13 cell growth in a cell viability assay.

[19] = tested on: CP66-MEL; assay type: functional, cell-based;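 further: growth inhibition of CP66-MEL cells determined in a cell viability assay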
Description: SANGER: Inhibition of human CP66-MEL cell growth in a cell viability assay.

[20] = tested on: OCUB-M; assay type: functional, cell-based;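 further: growth inhibition of the cancer cell line, read out through a cell viability assay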
Description: SANGER: Inhibition of human OCUB-M cell growth in a cell viability assay.

[21] = tested on: IST-SL1; assay type: functional, cell-based;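 further: growth inhibition of human IST-SL1 cells, read out with a cell viability assay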
Description: SANGER: Inhibition of human IST-SL1 cell growth in a cell viability assay.

[22] = tested on: HD-MY-Z; assay type: functional, cell-based;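 further: growth inhibition of HD-MY-Z cells, read out with a cell viability assay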
Description: SANGER: Inhibition of human HD-MY-Z cell growth in a cell viability assay.

[23] = tested on: NCI-H1563; assay type: functional, cell-based;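 further: growth inhibition of human NCI-H1563 cells, read out with a cell viability assay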
Description: SANGER: Inhibition of human NCI-H1563 cell growth in a cell viability assay.

[24] = tested on: C8166; assay type: functional, cell-based;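 further: growth inhibition of human C8166 cells measured by a cell viability assay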
Description: SANGER: Inhibition of human C8166 cell growth in a cell viability assay.

[25] = tested on: SF-126; assay type: functional, cell-based;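 further: growth inhibition of human SF126 cells, read out with a cell viability assay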
Description: SANGER: Inhibition of human SF126 cell growth in a cell viability assay.

[26] = tested on: SW982; assay type: functional, cell-based;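 further: growth inhibition of SW982 cells, read out with a cell viability assay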
Description: SANGER: Inhibition of human SW982 cell growth in a cell viability assay.

[27] = tested on: EOL1; assay type: functional, cell-based;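 further: growth inhibition of EoL-1 cells, read out by a cell viability assay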
Description: SANGER: Inhibition of human EoL-1-cell cell growth in a cell viability assay.

[28] = tested on: NCI-H1838; assay type: functional, cell-based;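 further: growth inhibition of NCI-H1838 cells, determined with a cell viability readout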
Description: SANGER: Inhibition of human NCI-H1838 cell growth in a cell viability assay.

[29] = tested on: HuTu80; assay type: functional, cell-based, HUTU-80;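 further: growth inhibition of HuTu80 human cells, determined with a cell viability readout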
Description: SANGER: Inhibition of human HUTU-80 cell growth in a cell viability assay.

[30] = tested on: MKN-45; assay type: functional, cell-based;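 further: growth inhibition of human MKN-45 cells, measured with a cell viability assay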
Description: SANGER: Inhibition of human MKN45 cell growth in a cell viability assay.

[31] = tested on: KM-H2; assay type: functional, cell-based;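 further: growth inhibition of KM-H2 cells, read out by a cell viability assay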
Description: SANGER: Inhibition of human KM-H2 cell growth in a cell viability assay.

[32] = tested on: CPC-N; assay type: functional, cell-based;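 further: growth inhibition of CPC-N cells, with a cell viability assay as the readout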
Description: SANGER: Inhibition of human CPC-N cell growth in a cell viability assay.

[33] = tested on: OCI-AML2; assay type: functional, cell-based;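 further: growth inhibition of OCI-AML2 cells, read out with a cell viability assay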
Description: SANGER: Inhibition of human OCI-AML2 cell growth in a cell viability assay.

[34] = tested on: OVCAR-8; assay type: functional, cell-based;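 further: growth inhibition of human OVCAR-8 cells, read out by a cell viability assay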
Description: SANGER: Inhibition of human OVCAR-8 cell growth in a cell viability assay.

[35] = tested on: HC-1; assay type: functional, cell-based;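 further: growth inhibition of HC-1 cells measured by a cell viability assay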
Description: SANGER: Inhibition of human HC-1 cell growth in a cell viability assay.

[36] = tested on: RPMI-8866; assay type: functional, cell-based
Description: SANGER: Inhibition of human RPMI-8866 cell growth in a cell viability assay.

[37] = tested on: SNU1; assay type: functional, cell-based;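 further: growth inhibition of human NCI-SNU-1 cells, measured with a cell viability assay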
Description: SANGER: Inhibition of human NCI-SNU-1 cell growth in a cell viability assay.

[38] = tested on: KINGS-1; assay type: functional, cell-based;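 further: cell viability assay measuring suppression of KINGS-1 cell growth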
Description: SANGER: Inhibition of human KINGS-1 cell growth in a cell viability assay.

[39] = tested on: A498; assay type: functional, cell-based;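 further: growth inhibition of human A498 cells, read out with a cell viability assay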
Description: SANGER: Inhibition of human A498 cell growth in a cell viability assay.

[40] = tested on: UACC-893; assay type: functional, cell-based
Description: SANGER: Inhibition of human UACC-893 cell growth in a cell viability assay.

[41] = tested on: SF-268; assay type: functional, cell-based;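 further: growth inhibition of SF-268 cells determined with a cell viability assay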
Description: SANGER: Inhibition of human SF268 cell growth in a cell viability assay.

[42] = tested on: LAN-6; assay type: functional, cell-based;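 further: growth inhibition of LAN-6 cells, determined with a cell viability assay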
Description: SANGER: Inhibition of human LAN-6 cell growth in a cell viability assay.

[43] = tested on: A704; assay type: functional, cell-based;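 further: growth inhibition of human A704 cells, read out with a cell viability assay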
Description: SANGER: Inhibition of human A704 cell growth in a cell viability assay.

[44] = tested on: JEG-3; assay type: functional, cell-based;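 further: growth inhibition of human JEG-3 cells, read out with a cell viability assay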
Description: SANGER: Inhibition of human JEG-3 cell growth in a cell viability assay.

[45] = tested on: GB-1; assay type: functional, cell-based;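 further: growth of GB-1 cells judged by a viability assay, IC50 marks the concentration inhibiting growth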
Description: SANGER: Inhibition of human GB-1 cell growth in a cell viability assay.

[46] = tested on: ES1; assay type: functional, cell-based;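 further: growth inhibition of ES1 cells, read out with a cell viability assay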
Description: SANGER: Inhibition of human ES1 cell growth in a cell viability assay.

[47] = tested on: NCI-H1155; assay type: functional, cell-based;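 further: cell growth inhibition measured by a viability assay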
Description: SANGER: Inhibition of human NCI-H1155 cell growth in a cell viability assay.

[48] = tested on: GAK; assay type: functional, cell-based;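 further: cell growth inhibition read out by a cell viability assay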
Description: SANGER: Inhibition of human GAK cell growth in a cell viability assay.

[49] = tested on: RPMI-8226; assay type: functional, cell-based
Description: SANGER: Inhibition of human RPMI-8226 cell growth in a cell viability assay.

[50] = tested on: MDA-MB-453; assay type: functional, cell-based
Description: SANGER: Inhibition of human MDA-MB-453 cell growth in a cell viability assay.

[51] = tested on: MHH-PREB-1; assay type: functional, cell-based;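 further: cell viability assay measuring inhibition of proliferation of human MHH-PREB-1 cells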
Description: SANGER: Inhibition of human MHH-PREB-1 cell growth in a cell viability assay.

[52] = tested on: NCI-H1355; assay type: functional, cell-based;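 further: growth inhibition of human NCI-H1355 cells, read out by a cell viability assay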
Description: SANGER: Inhibition of human NCI-H1355 cell growth in a cell viability assay.

[53] = tested on: no-11; assay type: functional, cell-based;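 further: growth inhibition of human NO-11 cells, read out with a cell viability assay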
Description: SANGER: Inhibition of human no-11 cell growth in a cell viability assay.

[54] = tested on: TE-12; assay type: functional, cell-based;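 further: growth inhibition of TE-12 cells, read out by a cell viability assay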
Description: SANGER: Inhibition of human TE-12 cell growth in a cell viability assay.

[55] = tested on: UMC-11; assay type: functional, cell-based
Description: SANGER: Inhibition of human UMC-11 cell growth in a cell viability assay.

[56] = tested on: RCC10RGB; assay type: functional, cell-based
Description: SANGER: Inhibition of human RCC10RGB cell growth in a cell viability assay.

[57] = tested on: NCI-H2052; assay type: functional, cell-based
Description: SANGER: Inhibition of human NCI-H2052 cell growth in a cell viability assay.

[58] = tested on: RS4-11; assay type: functional, cell-based
Description: SANGER: Inhibition of human RS4-11 cell growth in a cell viability assay.

[59] = tested on: JAR; assay type: functional, cell-based
Description: SANGER: Inhibition of human JAR cell growth in a cell viability assay.

[60] = tested on: DB; assay type: functional, cell-based
Description: SANGER: Inhibition of human DB cell growth in a cell viability assay.

[61] = tested on: MS-1; assay type: functional, cell-based
Description: SANGER: Inhibition of human MS-1 cell growth in a cell viability assay.

[62] = tested on: SNB-75; assay type: functional, cell-based
Description: SANGER: Inhibition of human SNB75 cell growth in a cell viability assay.

[63] = tested on: SW 962; assay type: functional, cell-based
Description: SANGER: Inhibition of human SW962 cell growth in a cell viability assay.

[64] = tested on: ECC4; assay type: functional, cell-based
Description: SANGER: Inhibition of human ECC4 cell growth in a cell viability assay.

[65] = tested on: MDA-MB-157; assay type: functional, cell-based
Description: SANGER: Inhibition of human MDA-MB-157 cell growth in a cell viability assay.

[66] = tested on: HH; assay type: functional, cell-based
Description: SANGER: Inhibition of human HH cell growth in a cell viability assay.

`C/C(O)=C(\C#N)C(=O)Nc1cc(Br)ccc1Br` was tested. Which pIC50 [1] did it give?
Its pIC50 is less than 4.80.

What about the pIC50 [2] of the same molecule?
Its pIC50 is less than 4.80.

What about the pIC50 [3] of the same molecule?
Its pIC50 is less than 4.80.

What about the pIC50 [4] of the same molecule?
Its pIC50 is less than 4.80.

What about the pIC50 [5] of the same molecule?
Its pIC50 is less than 4.80.

What about the pIC50 [6] of the same molecule?
The pIC50 was less than 4.80.

And the pIC50 [7]?
Its pIC50 is less than 4.80.

And the pIC50 [8]?
Its pIC50 is less than 4.80.

What about the pIC50 [9] of the same molecule?
Its pIC50 is less than 4.80.

And the pIC50 [10]?
Its pIC50 is less than 4.80.

And the pIC50 [11]?
The pIC50 was less than 4.80.

What about the pIC50 [12] of the same molecule?
The pIC50 was less than 4.80.

And the pIC50 [13]?
Its pIC50 is less than 4.80.

What about the pIC50 [14] of the same molecule?
Its pIC50 is less than 4.80.

What about the pIC50 [15] of the same molecule?
Its pIC50 is less than 4.80.

And the pIC50 [16]?
Its pIC50 is less than 4.80.

And the pIC50 [17]?
Its pIC50 is less than 4.80.

And the pIC50 [18]?
Its pIC50 is less than 4.80.

And the pIC50 [19]?
Its pIC50 is less than 4.80.

And the pIC50 [20]?
The pIC50 was less than 4.80.

And the pIC50 [21]?
Its pIC50 is less than 4.80.

What about the pIC50 [22] of the same molecule?
Its pIC50 is less than 4.80.

What about the pIC50 [23] of the same molecule?
The pIC50 was less than 4.80.

And the pIC50 [24]?
The pIC50 was less than 4.80.

And the pIC50 [25]?
The pIC50 was less than 4.80.

And the pIC50 [26]?
The pIC50 was less than 4.80.

What about the pIC50 [27] of the same molecule?
The pIC50 was less than 4.80.

What about the pIC50 [28] of the same molecule?
The pIC50 was less than 4.80.

What about the pIC50 [29] of the same molecule?
Its pIC50 is less than 4.80.

And the pIC50 [30]?
The pIC50 was less than 4.80.

What about the pIC50 [31] of the same molecule?
The pIC50 was less than 4.80.

And the pIC50 [32]?
The pIC50 was less than 4.80.

What about the pIC50 [33] of the same molecule?
Its pIC50 is less than 4.80.

What about the pIC50 [34] of the same molecule?
The pIC50 was less than 4.80.

And the pIC50 [35]?
Its pIC50 is less than 4.80.

What about the pIC50 [36] of the same molecule?
The pIC50 was less than 4.80.

And the pIC50 [37]?
Its pIC50 is less than 4.80.

What about the pIC50 [38] of the same molecule?
Its pIC50 is less than 4.80.

And the pIC50 [39]?
The pIC50 was less than 4.80.

What about the pIC50 [40] of the same molecule?
The pIC50 was less than 4.80.

And the pIC50 [41]?
The pIC50 was less than 4.80.

What about the pIC50 [42] of the same molecule?
Its pIC50 is less than 4.80.

What about the pIC50 [43] of the same molecule?
Its pIC50 is less than 4.80.

What about the pIC50 [44] of the same molecule?
Its pIC50 is less than 4.80.

What about the pIC50 [45] of the same molecule?
Its pIC50 is less than 4.80.

And the pIC50 [46]?
Its pIC50 is less than 4.80.

What about the pIC50 [47] of the same molecule?
Its pIC50 is less than 4.80.

And the pIC50 [48]?
The pIC50 was less than 4.80.

And the pIC50 [49]?
Its pIC50 is less than 4.80.

What about the pIC50 [50] of the same molecule?
The pIC50 was less than 4.80.

And the pIC50 [51]?
Its pIC50 is less than 4.80.

And the pIC50 [52]?
The pIC50 was less than 4.80.

And the pIC50 [53]?
Its pIC50 is less than 4.80.

What about the pIC50 [54] of the same molecule?
The pIC50 was less than 4.80.

What about the pIC50 [55] of the same molecule?
Its pIC50 is less than 4.80.

What about the pIC50 [56] of the same molecule?
The pIC50 was less than 4.80.

What about the pIC50 [57] of the same molecule?
Its pIC50 is less than 4.80.

What about the pIC50 [58] of the same molecule?
Its pIC50 is less than 4.80.

And the pIC50 [59]?
The pIC50 was less than 4.80.

And the pIC50 [60]?
Its pIC50 is less than 4.80.

What about the pIC50 [61] of the same molecule?
The pIC50 was less than 4.80.

And the pIC50 [62]?
Its pIC50 is less than 4.80.

What about the pIC50 [63] of the same molecule?
The pIC50 was less than 4.80.

And the pIC50 [64]?
Its pIC50 is less than 4.80.

And the pIC50 [65]?
Its pIC50 is less than 4.80.

What does the source list for `Cc1[nH]c(/C=C2\C(=O)Nc3ccc(S(=O)(=O)Cc4c(Cl)cccc4Cl)cc32)c(C)c1C(=O)N1CCC[C@@H]1CN1CCCC1` [PHA-665752]?
pIC50 [1]: < 5.70; pIC50 [2]: < 5.70; pIC50 [3]: < 5.70; pIC50 [66]: < 5.70; pIC50 [4]: < 5.70; pIC50 [5]: < 5.70; pIC50 [6]: < 5.70; pIC50 [7]: < 5.70; pIC50 [8]: < 5.70; pIC50 [9]: < 5.70; pIC50 [10]: < 5.70; pIC50 [11]: < 5.70; pIC50 [12]: 6.05; pIC50 [13]: < 5.70; pIC50 [14]: < 5.70; pIC50 [15]: < 5.70; pIC50 [17]: 5.89; pIC50 [18]: < 5.70; pIC50 [19]: < 5.70; pIC50 [20]: < 5.70; pIC50 [21]: < 5.70; pIC50 [22]: < 5.70; pIC50 [24]: < 5.70; pIC50 [25]: < 5.70; pIC50 [26]: < 5.70; pIC50 [27]: < 5.70; pIC50 [28]: < 5.70; pIC50 [29]: < 5.70; pIC50 [31]: < 5.70; pIC50 [32]: < 5.70; pIC50 [33]: < 5.70; pIC50 [35]: < 5.70; pIC50 [36]: < 5.70; pIC50 [37]: < 5.70; pIC50 [38]: 6.44; pIC50 [39]: < 5.70; pIC50 [41]: < 5.70; pIC50 [42]: < 5.70; pIC50 [43]: < 5.70; pIC50 [45]: < 5.70; pIC50 [46]: < 5.70; pIC50 [47]: < 5.70; pIC50 [48]: […]; pIC50 [49]: < 5.70; pIC50 [51]: < 5.70; pIC50 [52]: < 5.70; pIC50 [53]: < 5.70; pIC50 [54]: < 5.70; pIC50 [56]: < 5.70; pIC50 [58]: < 5.70; pIC50 [59]: < 5.70; pIC50 [60]: < 5.70; pIC50 [61]: < 5.70; pIC50 [62]: < 5.70; pIC50 [63]: < 5.70; pIC50 [64]: < 5.70
